Test results published in patent US10238747B2 (priority 2010, dated 2019).
“And” between values parts separate entries of the source, which are not always exact repeats. Identical values can stand only once.

Key:
[1] = test system: BALB/c and C57BL6 mice; conditions: mouse, in vivo
[2] = 2-8° C.
[3] = molecular target: CD4 (Homo sapiens, UniProt P01730); conditions: T cell co-stimulator molecule; cited from earlier work
[4] = test system: Dendritic Cells; type: cell-based, Balb/c mice
[5] = test system: CIA model of RA; conditions: mouse, in vivo; cited from earlier work

**Q.** For “DLLKNGERIEKVEGGGGLFGAIAGFIEGG [J-HA2 core 1]”, which “primary response: antibody production (day 24 or 38) or cytokine responses (day 3, 10 and 24)” value [1] is on record?
**A.** Its value is “very little response”.

**Q.** With “(amino)-DGQEEKAGVVSTGLIGGG-(amide) (H-DGQEEKAGVVSTGLIGGG-NH2) [CEL-1000]” as the substance, how does the “stability of formulation (time extremely stable)” value [2] read?
**A.** Its value is “over 2 years”.

**Q.** And the “binding to CD4” value [3]?
**A.** Its value is “shown to bind to CD4”.

**Q.** With DLLKNGERIEKVEGGGNDATYQRTRALVRTG [J-NP] as the substance, how does the “serum IFN-y, secondary response (FIG. 2)” value [1] read?
**A.** Its value is “sustained levels”.

**Q.** And the “serum IFN-γ response, normalized to adjuvant control (FIG. 1)” value [1]?
**A.** The value was “higher amounts”.

**Q.** What about the “serum IL-10, secondary response (FIG. 2)” value [1] of the same substance?
**A.** Its value is “sustained levels”.

**Q.** What about the “serum IL-12 p40p70, secondary response (FIG. 2)” value [1] of the same substance?
**A.** The value was “sustained levels”.

**Q.** What about the “serum IL-12p40 response, normalized to adjuvant control (FIG. 1)” value [1] of the same substance?
**A.** The value was “higher for C57BL6 mice”.

**Q.** What about the “serum IL-12p70, secondary response (FIG. 2)” value [1] of the same substance?
**A.** The value was “sustained levels”.

**Q.** And the “serum MCP-1 response, normalized to adjuvant control (FIG. 1)” value [1]?
**A.** The value was “higher amounts”.

**Q.** For “DLLKNGERIEKVEGGGYSVHQRIDVKDTKEALEKIEEEQNKSKKKA [JH]”, which “TNF-a Conc., R&D Systems TNF-a, Avg” value [4] is on record?
**A.** The value was 905.7 pg/mL and 685.0 pg/mL and 830.9 pg/mL.

**Q.** What about the “TNF-a Conc., RayBio TNF-a, Avg” value [4] of the same substance?
**A.** Its value is 29.6 pg/mL.

**Q.** With “DLLKNGERIEKVEGGGSLLTEVETPIRNEWGCRCNDSSD [J-M2e]” as the substance, how does the “serum IFN-y, secondary response (FIG. 2)” value [1] read?
**A.** Its value is “increase”.

**Q.** What about the “serum IFN-γ response, normalized to adjuvant control (FIG. 1)” value [1] of the same substance?
**A.** Its value is “higher amounts”.

**Q.** What about the “serum IL-10, secondary response (FIG. 2)” value [1] of the same substance?
**A.** The value was “increase”.

**Q.** And the “serum IL-12 p40p70, secondary response (FIG. 2)” value [1]?
**A.** The value was “increase”.

**Q.** And the “serum IL-12p40 response, normalized to adjuvant control (FIG. 1)” value [1]?
**A.** The value was “higher for C57BL6 mice”.

**Q.** What about the “serum IL-12p70, secondary response (FIG. 2)” value [1] of the same substance?
**A.** The value was “increase”.

**Q.** What about the “serum MCP-1 response, normalized to adjuvant control (FIG. 1)” value [1] of the same substance?
**A.** The value was “higher amounts”.

**Q.** For “DLLKNGERIEKVEGGGTGGKPGIAGFKGEQGPKGEP [CEL-2000]”, which “IL-12p70 Conc., R&D Systems (IL-12p70), Avg” value [4] is on record?
**A.** Its value is 67.9 pg/mL and 35.4 pg/mL and 58.2 pg/mL.

**Q.** What about the disease suppression [5] of the same substance?
**A.** The disease suppression was “suppress disease over a 90 day period”.

**Q.** What about the “efficacy compared with Enbrel” value [5] of the same substance?
**A.** The value was “more effective than Enbrel”.

**Q.** And the safety and tolerability [5]?
**A.** Its safety and tolerability is “safe and well-tolerated”.

**Q.** And the “serum IL-1 change” value [5]?
**A.** Its value is “reduced”.

**Q.** And the “serum IL-10 change” value [5]?
**A.** Its value is “increased”.

**Q.** And the “serum IL-12p40 change” value [5]?
**A.** The value was “decrease”.

**Q.** What about the “serum IL-12p70 change” value [5] of the same substance?
**A.** Its value is “increased”.

**Q.** What about the “serum MCP-1 change” value [5] of the same substance?
**A.** Its value is “reduced”.

**Q.** What about the “serum TNF-α change” value [5] of the same substance?
**A.** The value was “reduced”.

**Q.** With lipopolysaccharide [LPS] as the substance, how does the “IL-12p70 Conc., R&D Systems (IL-12p70), Avg” value [4] read?
**A.** The value was 57.0 pg/mL and 78.5 pg/mL and 62.5 pg/mL.

**Q.** And the “TNF-a Conc., R&D Systems TNF-a, Avg” value [4]?
**A.** The value was 5229.9 pg/mL and 3313.2 pg/mL and 3083.0 pg/mL.

**Q.** And the “TNF-a Conc., RayBio TNF-a, Avg” value [4]?
**A.** Its value is 3206.0 pg/mL and 2142.3 pg/mL and 2028.6 pg/mL.

**Q.** For “DLLKNGERIEKVEGGGLKSTQNAIDEITNKVN [J-HA2 core 2]”, which “primary response: antibody production (day 24 or 38) or cytokine responses (day 3, 10 and 24)” value [1] is on record?
**A.** The value was “very little response”.
